According to article PMC10845951, “Characterization of a selective, iron-chelating antifungal compound that disrupts fungal metabolism and synergizes with fluconazole” (Microbiology Spectrum, 2024):

Assays:
[1] = system: Candida glabrata (ATCC15545; JEY10028) wild type; assay: Compound screening: proliferation (OD600, 24 h); assay type: cell-based; details: wild-type C. glabrata (JEY10028), SD media
Method: For experiments, yeast cells were routinely cultured in YPD media and incubated at 30°C overnight. The cultures were refreshed the next day for 2–3 h in YNB −iron (0.69% yeast nitrogen base without amino acids or iron, with 2% dextrose) media, unless stated, at the same temperature. After incubation, the optical density (OD600) of the cell cultures was measured and adjusted to 0.15.
The collismycin compounds were provided by EntreChem (Spain) at stock solutions of 20 mM in DMSO and stored at −20°C. For serial dilutions of the compounds in clear 96-well plates, intermediate stock concentrations of 100 µM of compound (100 µL for each technical replicate) were prepared in YNB −iron media unless otherwise specified, and 1:1 serial dilutions were performed using a multi-channel pipette. Fifty microliters of cell culture (OD600 = 0.15) were added to the wells containing the compounds, for a total volume of 150 µL. The final concentrations in the wells (with three technical replicates) were equivalent to 0.5, 1, 2.1, 4.2, 8.4, 16.7, 33.3, and 66.6 µM. The OD600 of each well was quantified, and the plates were incubated inside plastic bags (to prevent evaporation) at 30°C for 24 h, after which the final OD600 was measured. The EC50 was calculated using the four-parameter log logistic function with the drc package in R ([57]).

C. albicans WT = details: 24 h
[2] = Candida albicans, read-out: C. albicans WT Inhibition (%)

Compound | antifungal activity [1] | susceptibility to fluconazole alone (C. albicans WT; YNB −iron) | inhibition at 3.13 µM (C. albicans WT; [2]) [%] | inhibition at 6.25 µM (C. albicans WT; [2]) [%] | inhibition at 25 µM (C. albicans WT; [2]) [%] | inhibition at 50 µM (C. albicans WT; [2]) [%] | inhibition at 100 µM (C. albicans WT; [2]) [%]
COc1cc(-c2ccccn2)nc(CO)c1SC [ColH, collismycin H] | lacked antifungal activity even at very high concentrations |  |  |  |  |  | 
OC(Cn1cncn1)(Cn1cncn1)c1ccc(F)cc1F [Fluconazole, fluconazole] |  | only susceptible to high concentrations | -1.65 | 9.43 | 14.8 | 15.4 | 19.6
